The subject of assay [1] is PfCRT variant E207K. The assay can be described thus: CQ uptake assay, oocytes expressing E207K. The format is cell-based, Plasmodium falciparum. Here is the method:
(§1) Site-directed mutagenesis of PfCRT^Dd2 was performed as described using the megaprimer method with overlap extension[21],[54]. The primer pairs used are listed in Supplementary Table 6. Please note that a codon-optimized and oocyte-adapted version of PfCRT^Dd2 was used[22] (Supplementary Fig. 16). The resulting DNA fragment was cloned into the SP64T expression vector and verified by sequencing.
(§2) Oocytes were obtained as described previously. Briefly, adult (>2 years old) female X. laevis frogs (NASCO) were anesthetized in a cooled solution of ethyl 3-amino benzoate methanesulfonate (0.1%, w/v), followed by a surgical removal of parts of the ovary. The ovary lobes were carefully dissected and small pieces of oocytes were incubated in Ca^2+-free ND96 buffer (96 mM NaCl, 2 mM KCl, 1 mM MgCl2 buffered with 5 mM HEPES/NaOH, pH 7.5) supplemented with collagenase D (0.1%, w/v; Roche), BSA (0.5%, w/v), and 9 mm Na2HPO4 at 18 °C for 14-16 h while gentle shaking. After incubation, the oocytes were carefully washed several times with ND96 buffer (96 mM NaCl, 2 mM KCl, 1.8 mM CaCl2, 1 mM MgCl2 buffered with 5 mM HEPES/NaOH, pH 7.5) supplemented with 100 mg l^−1 gentamycin). Defolliculated and healthy-looking stage V-VI oocytes were manually selected for RNA microinjection. The RNA was generated as following: The codon-optimized sequences of PfCRT variants were cloned into the pSP64T expression vector. After vector linearization using the restriction endonucleases BamHI or SalI (New England Biolabs), transcription was performed using the in vitro SP6 mMessage mMachine Kit (Ambion)[34]. The obtained RNA was kept at −80 °C and diluted with nuclease-free water to a concentration of 0.6 μg μl^−1. Precision-bore glass capillary tubes (3.5-inch glass capillaries; Drummond Scientific Co.) were pulled on a vertical puller (P-87 Flaming/Brown micropipette puller, Sutter Instrument Co.), graduated, and placed on a microinjector (Nanoject II Auto-Nanoliter Injector, Drummond Scientific Co.). 50 nl of nuclease-free water alone (control oocytes) or 50 nl of 0.6 μg μl^−1 RNA were injected under stereomicroscopic control. Injected oocytes were incubated for 46–72 h at 18 °C with twice-daily buffer changes before usage in experiments.
(§3) Drug uptake assays were performed as described previously[21],[22],[24],[34]. […] The direction of radio-labeled drug transport is here from the mostly acidic extracellular solution (pH 4.5 or 6.0, as indicated) into the oocyte cytosol (pH ∼ 7.2), which corresponds to the efflux of drug from the acidic digestive vacuole (pH 5.2) into the parasite cytoplasm (pH 7.2). The topology of PfCRT in the oolemma is such that both the N- and C-terminus face the extracellular milieu[3],[22]. In the parasite, the N- and C-terminus face the lumen of the digestive vacuole. CQ uptake kinetics were performed by incubating oocytes in ND96 buffer adjusted to a pH of 4.5, 5.0, 5.5, or 6.0 and supplemented with 50 nM [^3H]CQ and one of 7 different CQ concentrations (10 µM, 50 µM, 100 µM, 200 µM, 300 µM, 400 µM, 500 µM CQ). The reaction was stopped at the 60 min time point, which is in the linear uptake range[22],[34] (Supplementary Fig. 17). For determination of the amount of drug uptake for each oocyte, the reaction medium was removed and the oocytes were washed three times with 2 ml of ice-cold ND96 buffer. Each oocyte was individually transferred to a scintillation vial containing 5% sodium dodecyl sulfate (200 μl) for lysis. The radioactivity of each sample was measured using a liquid scintillation analyzer Tri-Carb 4910 TR (PerkinElmer). Oocytes that were injected with water instead of RNA were analyzed in parallel, representing the uptake of a drug by diffusion and/or endogenous permeation pathways. The resulting value represents the “background“ level of drug accumulation in oocytes (in-depth discussion in[22]). […]

For assay [2], the target named is T1, PfCRT variant E204A (Plasmodium falciparum, UniProt Q9N623, A220S/E204A/I356T/K76T/M74I/N326S/N75E/Q271E/R371I).
T1 sequence (Q9N623 1-424 M74I/N75E/K76T/E204A/A220S/Q271E/N326S/I356T/R371I): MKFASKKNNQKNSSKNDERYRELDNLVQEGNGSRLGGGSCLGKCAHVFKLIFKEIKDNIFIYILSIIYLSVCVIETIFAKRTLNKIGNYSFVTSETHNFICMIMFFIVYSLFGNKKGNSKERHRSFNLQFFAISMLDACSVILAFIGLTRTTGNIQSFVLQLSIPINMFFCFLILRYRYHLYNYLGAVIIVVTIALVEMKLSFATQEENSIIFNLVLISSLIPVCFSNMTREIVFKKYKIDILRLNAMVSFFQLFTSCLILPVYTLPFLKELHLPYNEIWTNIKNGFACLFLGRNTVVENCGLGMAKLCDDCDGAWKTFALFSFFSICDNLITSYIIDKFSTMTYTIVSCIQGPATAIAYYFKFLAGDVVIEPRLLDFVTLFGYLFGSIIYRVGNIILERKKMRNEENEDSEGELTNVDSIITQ
The assay can be described thus: CQ uptake assay, oocytes expressing E204A. The format is cell-based. Here is the method:
as §1, §2, §3

Where [3] appears, read: E207K, 50 µM CQ, 1 h, mean ± SEM.
Where [4] appears, read: E204A, 50 µM CQ, 1 h, mean ± SEM.

Molecules are shown by their SMILES. “And” between values parts separate entries of the source, which are not always exact repeats. Equal entries are not always repeated.

Turning to `CCN(CC)CCCC(C)Nc1ccnc2cc(Cl)ccc12` (stereo not drawn) [CQ, chloroquine], the figures for the “Activity at pH 4.5” value in assay [1] (setting [3]) and in assay [2] (setting [4]) were 1.91 ± 0.10 pmol h-1 oocyte-1 and 1.43 ± 0.06 pmol h-1 oocyte-1, respectively. Further, the “Activity at pH 6.0” value was determined as 2.34 ± 0.24 pmol h-1 oocyte-1 in assay [1] (setting [3]) and 2.98 ± 0.34 pmol h-1 oocyte-1 in assay [2] (setting [4]). Further, the R-value in assay [1] (E207K, CQ transport at pH 4.5 / pH 6.0) is given as 0.83 ± 0.04; in assay [2] (E204A, CQ transport at pH 4.5 / pH 6.0), 0.51 ± 0.09. In addition, in assay [1] (pH 4.5, individual replicates, Fig 6b), the “E207K transport activity pH 4.5” value was 2.09 pmol oocyte-1 h-1 and 1.67 pmol oocyte-1 h-1 and 1.96 pmol oocyte-1 h-1. In addition, the “E207K transport activity pH 6.0” value in assay [1] (pH 6.0, individual replicates, Fig 6b) is 2.92 pmol oocyte-1 h-1 and 1.97 pmol oocyte-1 h-1 and 2.13 pmol oocyte-1 h-1. Further, in assay [1] (ratio of activity pH 4.5 / pH 6.0), the “E207K R-value” was 0.72 and 0.85 and 0.92. Besides, in assay [2] (pH 4.5, single replicates, Fig 1d left), the “E204A transport activity pH 4.5” value was 1.57 pmol oocyte-1 h-1 and 1.35 pmol oocyte-1 h-1 and 1.36 pmol oocyte-1 h-1. In assay [2] (pH 4.5 vs pH 6.0, Fig 1d left), the “E204A R-value” is 0.72 and 0.42 and 0.38. In addition, the “E204A transport activity pH 6.0” value in assay [2] (pH 6.0, single replicates, Fig 1d left) was 2.18 pmol oocyte-1 h-1 and 3.22 pmol oocyte-1 h-1 and 3.54 pmol oocyte-1 h-1.
